The series is described as follows: Intrinsic clearance in liver microsomes, rat. Format: in vitro ADME. To be noted: rat, liver microsomes, pH 7.4, rat liver microsomes, Method 1; read-out: Half-Life (T1/2) (min), Rat. In a few lines:
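Compound at 1 μM (0.1–1% DMSO) incubated at 37 °C with mouse or rat liver microsomes (0.5 mg/mL protein) and 1 mM NADPH in PBS pH 7.4; samples taken up to 60 min and quenched in cold acetonitrile. LC-MS/MS of percent remaining gave half-life and CLint; no-NADPH controls run.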
Background: Microsomes from liver hold many membrane-bound enzymes, among them those of drug oxidation.

Take `CNC(=O)c1[nH]c(C(=O)NC2CCC2)cc1O[C@@H](C)c1ccccc1` (stereo in doubt) [Example 101, N^5-cyclobutyl-N^2-methyl-3-(1-phenylethoxy)-1H-pyrrole-2,5-dicarboxamide]: the half-life at 1 μM came to 58 min.

These data come from patent US20250263370A1 (Tay Therapeutics Limited, priority 2022, published 2025).
